Like-named read-outs stand apart in the source and are kept apart here.

The values below come from patent EP0738513A1, “Method for using ergoline compounds to effect physiological and pathological functions at the 5-HT7 receptor” (ELI LILLY AND COMPANY, priority 1995, dated 1996).

Series [1] deals with 5-HT7 receptor in the dog coronary artery. The series is described as follows: antagonism of 5-HT-induced relaxation in endothelium-denuded canine coronary artery rings precontracted with PGF2α. It counts as cell-based, mongrel dogs. The conditions noted are these: for relaxant activity as agonist in canine coronary artery: agonist alone; for pA2 (-log KB): antagonist dissociation constant against 5-HT-induced relaxation, Schild analysis for compounds II and IV. The method, then: (§1) Hearts were obtained from mongrel dogs anesthetized with sodium pentobarbital (30mg/kg, i.v.) and placed in oxygenated modified Krebs' solution of the following composition (millimolar): NaCl, 118; KCl, 4.6; CaCl2, 1.6; KH2PO4, 1.2; MgSO4 1.2, glucose, 10; NaHCO3 24.8 (pH 7.4). The left anterior descending and circumflex coronary arteries were dissected from the hearts, cleaned of fat and adhering tissue and cut into rings (approximately 2-3mm outer diameter and 4-5mm in length). The intimal surface of the rings was gently rubbed with a pair of forceps to remove the endothelium. Tissues were then mounted between two stainless steel hooks and placed in 10ml organ chambers constantly exposed to oxygenated modified Krebs' solution (95% O2/5% CO2; pH 7.4; 37°C). Tissues were equilibrated for 1 hour under an initial optimal passive force of 4g determined previously from length-tension experiments. The buffer was replaced every 15 minutes during equilibration. Isometric force was measured with Statham UC3 force transducers connected to a Beckman dynograph (R611). After lhr equilibration, tissues were depolarized twice with 50mM KCl for 30min with a 20min washing period between. The integrity of the endothelium was examined with acetylcholine (1µM), bradykinin (100nM), or the ionophore A23187 (1µM). Rings that relaxed to these agents were not used in this study.
(§2) Tissues prepared as described in Example 1 were precontracted with PGF2α (10µM) which produced a tonic contraction that remained at or above 92.8±2.1% (n=14) of the original maximum force throughout the experiment. Cumulative concentration-response curves to 5-HT were generated in tissues incubated with either vehicle or antagonist for 1hr. In some experiments contraction was measured in tissues under basal tone upcn the cumulative addition of 5-HT. These tissues were treated with prazosin (1µM) to block any potential α adrenoceptor activation and in the absence or presence of antagonist.
(§3) All results are expressed as mean ± S.E. where "n" represents the number of rings examined. No more than two rings were used from each animal for each compound studied. The relaxation data is expressed as percent relaxation of the contraction produced by PGF2α . The contraction data is expressed as percent of a maximal KCl (50mM) contraction. The EC50 was the concentration of the agonist producing half-maximal response and was determined by least squares linear regression analysis of the linear portion of the agonist concentration-response curve and expressed as -log EC50 (pEC50).
Apparent antagonist dissociation constants (KB) were determined for each antagonist according to the following equation: KB =((B))/((dose ratio -1)) [formula] where (B) is the concentration of the antagonist and dose ratio is the EC50 of the agonist in the presence of the antagonist divided by the EC50 of the agonist in vehicle treated tissues. […] Significant differences between vehicle and antagonist treated tissues were determined with Student's t-test. The alpha value was set a priori at 0.05.
The data was also analyzed in accord with the procedure of Arunlakshana and Schild (1959). The dose ratio was determined at various concentrations of antagonist compound II or compound IV. If blockade is competitive under equilibrium conditions a plot of the logarithm (dose ratio - 1) against the negative logarithm of the molar concentration of antagonist should yield a straight line whose slope is not different from unity and whose intercept on the abscissa is the pA2, which is generally considered to be equivalent to -log KB.

Series [2] has as its system endothelium denuded canine coronary artery. In words: agonist-induced contraction in endothelium-denuded canine coronary artery under basal tone. It is filed as cell-based, mongrel dogs. The note with it: for contractile response as agonist: no antagonist. The method, then: as §1, §2, §3
Series [3] deals with human 5-HT7 receptor (Homo sapiens, UniProt P34969). The series is described as follows: receptor binding studies at the human 5-HT7 receptor. From the text: The general chemical structure for three particularly useful compounds of the invention (compounds III - V) are shown below: [drawing 3]
Series [4] is described as follows: bioavailability after oral administration in rats. The conditions noted are these: comparative statement. It counts as in vivo.
Series [5] addresses 5-HT7 receptor (Rattus norvegicus, UniProt P32305). The note with it: receptor expressed in mammalian cells; Shen at 18200; cited from earlier work.
Setting [6] is: rings precontracted with PGF2α (10µM).
Where [7] appears, read: antagonist 0.3-10µM, rings precontracted with PGF2α (10µM).
Where [8] appears, read: antagonist 1µM, vessels under basal tone.

Chain of human 5-HT7 receptor (P34969 whole entry): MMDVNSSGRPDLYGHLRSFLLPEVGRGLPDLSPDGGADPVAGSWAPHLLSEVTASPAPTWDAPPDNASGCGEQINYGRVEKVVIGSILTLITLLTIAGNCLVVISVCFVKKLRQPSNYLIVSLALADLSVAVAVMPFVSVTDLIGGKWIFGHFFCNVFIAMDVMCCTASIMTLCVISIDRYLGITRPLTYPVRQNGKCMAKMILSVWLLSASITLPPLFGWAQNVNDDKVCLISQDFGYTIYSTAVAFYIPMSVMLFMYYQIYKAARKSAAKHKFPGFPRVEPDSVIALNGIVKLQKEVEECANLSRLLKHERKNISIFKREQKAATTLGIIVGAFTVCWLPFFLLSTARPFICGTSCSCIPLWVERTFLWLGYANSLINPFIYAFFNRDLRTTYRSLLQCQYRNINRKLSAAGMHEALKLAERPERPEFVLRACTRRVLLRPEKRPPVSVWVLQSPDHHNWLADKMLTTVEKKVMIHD
Chain of 5-HT7 receptor (P32305 whole entry): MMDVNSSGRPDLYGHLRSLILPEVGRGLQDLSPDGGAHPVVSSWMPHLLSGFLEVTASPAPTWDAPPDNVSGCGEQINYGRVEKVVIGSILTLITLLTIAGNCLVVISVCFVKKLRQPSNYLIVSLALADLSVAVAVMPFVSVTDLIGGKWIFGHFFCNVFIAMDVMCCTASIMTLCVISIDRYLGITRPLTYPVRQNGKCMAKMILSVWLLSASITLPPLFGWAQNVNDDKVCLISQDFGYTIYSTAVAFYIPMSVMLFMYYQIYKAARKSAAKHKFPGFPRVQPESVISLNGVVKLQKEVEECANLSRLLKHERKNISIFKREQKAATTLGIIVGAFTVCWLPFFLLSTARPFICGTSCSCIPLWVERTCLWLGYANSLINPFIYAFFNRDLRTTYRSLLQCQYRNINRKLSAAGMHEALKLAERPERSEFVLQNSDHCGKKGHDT

With `NCCc1c[nH]c2ccc(C(N)=O)cc12` [5-CT, 5-carboxamidotryptamine], in series [1], the “relaxant activity as agonist in canine coronary artery” value is “potent relaxant agonist”. Also, the “contractile response as agonist in the presence of compound IV” value in series [2] (basal tone, compound IV (1µm) present to block relaxation) is listed as “concentration-dependently contracted”. Further, in series [2] (vessels under basal tone), the “contractile response as agonist” value is recorded as “did not significantly contract”.
`NCCc1c[nH]c2ccc(O)cc12` [5-HT, 5-hydroxytryptamine]: the “contractile response as agonist” value in series [2] (vessels under basal tone) is “biphasic contractile response”.
On the same count and under the same terms, for `COc1ccc2[nH]cc(CCN)c2c1` [5-MeOT, 5-methoxytryptamine] the value was “biphasic contractile response”.
As a reminder, the Kd is the constant that tells how readily two partners part at equilibrium. Consider `CC(C)n1cc2c3c(cccc31)C1CC(C(=O)NC3CCCCC3)CN(C)C1C2` (stereo not shown) [COMPOUND III], for which the Kd in series [3] (read-out: -log KD (converted)) is 25.1 nM; in series [3] (read-out: KD), 27.1 ± 1.5 nM. For the same compound, in series [1] (antagonist 1µM), the “effect on 5-HT-induced relaxation” value is listed as “blocked 5-HT-induced relaxation”. For the same compound, the “pA2 (-log KB)” value in series [1] (setting [6]) was 6.7. In series [4], the bioavailability result was “greater bioavailability than the ester compounds II and V”.
For `CC(O)C(C)OC(=O)C1CC2c3cccc4c3c(cn4C(C)C)CC2N(C)C1` (stereo not shown) [COMPOUND II], the Kd in series [3] (read-out: -log KD (converted)) was 631 nM. Besides, the Kd in series [3] (read-out: KD) was 609 nM. For the same compound, in series [1] (setting [7]), the “effect on concentration-response curve to 5-HT (relaxation)” value is “shifted the concentration-response curve to 5-HT significantly to the right” and the “effect on maximum relaxant response to 5-HT” value is “did not alter”. Besides, in series [1] (setting [6]), the “pA2 (-log KB)” value was found to be 6.5.
Turning to `CC(C)n1cc2c3c(cccc31)C1CC(C(=O)NC3CCCC3O)CN(C)C1C2` (stereo not shown) [COMPOUND IV], the Kd in series [3] (read-out: -log KD (converted)) is 12.6 nM. Further, the Kd in series [3] (read-out: KD) is 13.3 ± 1.2 nM. Further, the “effect on 5-HT-induced relaxation” value in series [1] (antagonist 10-100nM) is reported as “blocked 5-HT-induced relaxation”. In series [1] (setting [6]), the “pA2 (-log KB)” value was 8.3. For the same compound, in series [2] (antagonist 1µM, basal tone), the “effect on sumatriptan-induced contraction” value is reported as “did not significantly affect”. In series [2] (setting [8]), the “effect on contractile response produced by 5-HT and 5-MeOT” value was “not affecting”; the “effect on relaxant phase of the biphasic response to 5-HT and 5-MeOT” value is listed as “significantly attenuated”. Moreover, the bioavailability result in series [4] was “greater bioavailability than the ester compounds II and V”.
As to `CN(C)CCC=C1c2ccccc2CCc2ccccc21` [amitriptyline], the “affinity of the 5-HT7 receptor to the drug” value in series [5] was “high affinity”.
In the case of `CNS(=O)(=O)Cc1ccc2[nH]cc(CCN(C)C)c2c1` [sumatriptan], in series [1], the “relaxant activity as agonist in canine coronary artery” value is “lacking relaxant activity”.
